How the values were obtained:
[1] = system: BON human GI carcinoid cancer cells; test: Western blot analysis of GI carcinoid cells; format: cell-based
Experimental: Cell Culture BON human GI carcinoid cancer cells, kindly provided by Drs. B. Mark Evers and Courtney M. Townsend, Jr.
Total protein concentrations were quantified with a bicinchoninic acid assay kit (Pierce Biotechnology, Rockford, Ill., USA). Denatured cellular extracts were resolved by SDS-PAGE, transferred to nitrocellulose membranes (Schleicher and Schuell, Keene, N.H., USA), blocked in milk, and incubated with appropriate antibodies. The antibody dilutions were: 1:1,000 for Notch1 (Santa Cruz Biotechnology, Santa Cruz, Calif., USA), mammalian achaete-scute homolog 1 (ASCL1; BD Biosciences, San Diego, Calif., USA), chromogranin A (Zymed Laboratories, San Francisco, Calif., USA), and cyclin D1 (Cell Signaling Technology, Danvers, Mass., USA), 1:2,000 for p21 (Cell Signaling Technology) and p27 (Santa Cruz Biotechnology), and 1:10,000 for glyceraldehyde-3-phosphate dehydrogenase (G3PDH; Trevigen, Gaithersburg, Md., USA). Horseradish peroxidase conjugated goat anti-rabbit or goat anti-mouse secondary antibodies (Pierce Biotechnology) were used depending on the source of the primary antibody. For visualization of the protein signal, Immunstar (Bio-Rad Laboratories, Hercules, Calif., USA) or SuperSignal West Femto (Pierce Biotechnology) kits were used per the manufacturer's instructions.
Cell Culture BON human gastrointestinal (GI) carcinoid tumor cells, kindly provided by Drs. B. Mark Evers and Courtney M. Townsend, Jr.
Total protein concentrations were quantified with a bicinchoninic acid assay kit (Pierce Biotechnology, Rockford, Ill.). Denatured cellular extracts were resolved by SDS-PAGE, transferred onto nitrocellulose membranes (Schleicher and Schuell, Keene, N H), blocked in milk, and incubated with appropriate antibodies. The antibody dilutions were: 1:1,000 for Notch1 (Santa Cruz Biotechnology, Santa Cruz, Calif.), mammalian achaete-scute homolog 1 (ASCL1; BD Biosciences, San Diego, Calif.), chromogranin A (Zymed Laboratories, San Francisco, Calif.), and cyclin D1 (Cell Signaling Technology, Danvers, Mass.), 1:2,000 for p21 (Cell Signaling Technology) and p27 (Santa Cruz Biotechnology), and 1:10,000 for glyceraldehyde-3-phosphate dehydrogenase (G3PDH; Trevigen, Gaithersburg, Md.). Horseradish peroxidase conjugated goat anti-rabbit or goat anti-mouse secondary antibodies (Pierce Biotechnology) were used depending on the source of the primary antibody. For visualization of the protein signal, Immunstar (Bio-Rad Laboratories, Hercules, Calif.) or SuperSignal West Femto (Pierce Biotechnology) kits were used per the manufacturer's instructions.

[2] = system: H727 human lung carcinoid cancer cells; test: Western blot analysis of pulmonary carcinoid cells; format: cell-based
BON GI carcinoid cells = test: Flow cytometry cell cycle analysis; format: cell-based, human; conditions: VPA
Experimental: Flow Cytometry GI carcinoid cells treated with or without VPA were labeled for 1 hour with 10 μM bromodeoxyuridine (Sigma-Aldrich) and counter-stained with 50 μg/ml propidium iodide and analyzed by two-dimensional flow cytometry (FACSCalibur flow cytometer; BD Biosciences) to detect both fluorescein and propidium iodide as previously described (Hirai, H. et al., Involvement of cell cycle progression in survival signaling through CD40 in the B-lymphocyte line WEHI-231. Cell Death Differ 2004; 11:261-269). Results were analyzed with FlowJo software (Tree Star, Ashland, Oreg.).

Notch1 = test: CBF1 binding site luciferase reporter assay; format: cell-based, human; conditions: GI carcinoid cells, VPA 48 hours
Experimental: Luciferase Reporter Assays GI carcinoid tumor cells were transiently transfected with luciferase constructs as previously described (Kunnimalaiyaan, M. et al., Conservation of the Notch1 signaling pathway in gastrointestinal carcinoid cells A J Physiol Gastrointest Liver Physiol 2005; 289:G636-642). Wild-type (4xwtCBF1Luc; 2 μg) or mutant (4xmutCBF1Luc; 2 μg) CBF1-luciferase reporter plasmids were co-transfected with CMV-β-gal (0.5 μg) (Hsieh J J et al., Truncated Mammalian Notch1 Activates CBF1/RBPJk-Repressed Genes by a Mechanism Resembling That of Epstein-Barr Virus EBNA2. Mol Cell Biol 1996; 16:952-959). In experiments with the γ-secretase inhibitor, N-[N-(3,5-difluorophenacetyl)-L-alanyl]-S-phenylglycine t-butyl ester (DAPT; EMD Biosciences, Darmstadt, Germany), to inhibit Notch1 cleavage and activation, cells were pretreated for 45 minutes with DAPT (50 μM) then treated with 4 mM VPA. […] Luciferase levels were measured using a Monolight 2010 Luminometer (Analytical Luminescence Laboratory, San Diego, Calif.). […]

ASCL1 promoter = ASCL1 promoter luciferase reporter assay; format: cell-based, human; conditions: GI carcinoid cells, VPA 48 hours
[3] = human patients treated for epilepsy; cited from earlier work

With CCCC(CCC)C(=O)O [VPA, 2-propylpentanoic acid] as the compound, how does the ASCL1 protein ([1]; VPA) read?
The ASCL1 protein was “dose-dependent decrease”.

What about the “full-length Notch1 and NICD” value ([1]; VPA 0-4 mM, 2 days) of the same compound?
The value was “increase”.

And the “protein levels of p21 and p27” value ([1]; VPA 1 mM)?
Its value is “increase in protein levels”.

And the “cyclin D1 level” value ([1]; VPA 4 mM, 4 days)?
The value was “almost undetectable”.

What about the “protein levels of CgA” value ([1]; VPA, two days) of the same compound?
Its value is “decreased”.

What about the ASCL1 protein ([2]; VPA) of the same compound?
Its ASCL1 protein is “dose-dependent decrease”.

What about the “full-length Notch1 and NICD” value ([2]; VPA 0-4 mM, 2 days) of the same compound?
The value was “increase”.

And the ASCL1 protein ([2]; VPA 4 mM, 2 days)?
The ASCL1 protein was “undetectable levels”.

What about the “protein levels of CgA” value ([2]; VPA, two days) of the same compound?
The value was “decreased”.

And the “cells in the S phase” value (BON GI carcinoid cells)?
Its value is “decrease”.

What about the “percentage of cells in the G1 phase” value (BON GI carcinoid cells) of the same compound?
Its value is “dose-dependent increase”.

And the “increase in CBF1 luciferase activity” value (Notch1)?
The value was 5 fold.

What about the “decrease in ASCL1 promoter luciferase activity” value (ASCL1 promoter) of the same compound?
Its value is roughly 4 fold.

What about the therapeutic range [3] of the same compound?
The therapeutic range was 50 to 125 µg/mL.

From patent US8338482B2, “Modulating notch1 signaling pathway for treating neuroendocrine tumors” (Wisconsin Alumni Research Foundation, priority 2007, dated 2012)
